Measured values: patent publication US8399399B2, “3- and 4-methyl dodecenal and their use in fragrance and flavour compositions” (Givaudan SA, priority 2005, dated 2013)

Test: Determination of GC-odour threshold concentration (gas chromatograph with sniff port, panel of trained evaluators)
Conditions: for odour threshold concentration, geometric mean: GC sniff port, absolute amount of compound delivered at the sniff port, group of 5 panelists, identical conditions; for odour threshold of the (Z)-isomer compared to its corresponding (E)-isomer (times higher): pure (Z)-isomer versus pure (E)-isomer
Experimental: The odour threshold concentration is defined as the lowest concentration of the vapour of an odourant material in the air which can be detected by smell and can be measured by standard methods known in the art.
According to standard procedures known to the person skilled in the art, threshold concentrations for volatile perfumery compounds are determined on a gas chromatograph equipped with a sniff port by a panel of trained evaluators. The lowest concentration smelled by each panellist is recorded as the individual threshold concentration expressed in ng (absolute amount of compound delivered at the sniff port).
Under identical conditions the odour threshold concentration for (E)-2-methyl-4-dodecenal (prior art), (E)-3-methyl-4-dodecenal and (E)-4-methyl-4-dodecenal was measured and compared by a group of 5 panelists.

Structure (SMILES) | odour threshold concentration, geometric mean [ng] | odour threshold of the (Z)-isomer compared to its corresponding (E)-isomer (times higher) [times]
CCCCCCC/C=C/CC(C)C=O (centres unmarked) [(E)-2-methyl-4-dodecenal, reference compound] | 3.2 | 
CCCCCCC/C=C/C(C)CC=O (centres unmarked) [(E)-3-methyl-4-dodecenal] | 1.0 | 
CCCCCCC/C=C(\C)CCC=O [(E)-4-methyl-4-dodecenal, (E)-4-Methyl-4-dodecenal] | 0.05 | 
CCCCCCC/C=C\C(C)CC=O (centres unmarked) [(Z)-3-methyl-4-dodecenal] |  | 5
CCCCCCC/C=C(/C)CCC=O [(Z)-4-methyl-4-dodecenal, (Z)-4-Methyl-4-dodecenal] |  | 20
